From PubChem BioAssay (NCI)
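Exposure lasted 48 hours, with cells grown in 96-well plates and compounds tested at five concentrations. At the GI50, growth is halved. TGI marks complete inhibition of growth.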

What was measured:
Assay in all cases: NCI-60 cell line screen, 48 h
786-0 renal = tested on: 786-0 renal
A498 renal = tested on: A498 renal
A549 NSCLC = tested on: A549 NSCLC
ACHN renal = tested on: ACHN renal
BT-549 breast = tested on: BT-549 breast
CAKI-1 renal = tested on: CAKI-1 renal
CCRF-CEM leukemia = tested on: CCRF-CEM leukemia
COLO 205 colon = tested on: COLO 205 colon
DU-145 prostate = tested on: DU-145 prostate
HCC-2998 colon = tested on: HCC-2998 colon
HCT-116 colon = tested on: HCT-116 colon
HCT-15 colon = tested on: HCT-15 colon
HL-60(TB) leukemia = tested on: HL-60(TB) leukemia
HOP-62 NSCLC = tested on: HOP-62 NSCLC
HS 578T breast = tested on: HS 578T breast
HT29 colon = tested on: HT29 colon
IGROV1 ovarian = tested on: IGROV1 ovarian
K-562 leukemia = tested on: K-562 leukemia
KM12 colon = tested on: KM12 colon
LOX IMVI melanoma = tested on: LOX IMVI melanoma
M14 melanoma = tested on: M14 melanoma
MALME-3M melanoma = tested on: MALME-3M melanoma
MCF7 breast = tested on: MCF7 breast
MDA-MB-231 breast = tested on: MDA-MB-231 breast
MDA-MB-435 = tested on: MDA-MB-435
NCI-H226 lung = tested on: NCI-H226 lung
NCI-H23 lung = tested on: NCI-H23 lung
NCI-H460 lung = tested on: NCI-H460 lung
NCI-H522 lung = tested on: NCI-H522 lung
NCI/ADR-RES ovarian = tested on: NCI/ADR-RES ovarian
OVCAR-3 ovarian = tested on: OVCAR-3 ovarian
OVCAR-4 ovarian = tested on: OVCAR-4 ovarian
OVCAR-5 ovarian = tested on: OVCAR-5 ovarian
OVCAR-8 ovarian = tested on: OVCAR-8 ovarian
PC-3 prostate = tested on: PC-3 prostate
RPMI-8226 leukemia = tested on: RPMI-8226 leukemia
RXF 393 renal = tested on: RXF 393 renal
SF-268 CNS = tested on: SF-268 CNS
SF-295 CNS = tested on: SF-295 CNS
SF-539 CNS = tested on: SF-539 CNS
SK-MEL-2 melanoma = tested on: SK-MEL-2 melanoma
SK-MEL-28 melanoma = tested on: SK-MEL-28 melanoma
SK-MEL-5 melanoma = tested on: SK-MEL-5 melanoma
SK-OV-3 ovarian = tested on: SK-OV-3 ovarian
SN12C renal = tested on: SN12C renal
SNB-19 CNS = tested on: SNB-19 CNS
SNB-75 CNS = tested on: SNB-75 CNS
SR leukemia = tested on: SR leukemia
SW-620 colon = tested on: SW-620 colon
T-47D breast = tested on: T-47D breast
U251 CNS = tested on: U251 CNS
UACC-257 melanoma = tested on: UACC-257 melanoma
UACC-62 melanoma = tested on: UACC-62 melanoma
UO-31 renal = tested on: UO-31 renal

## COc1ccc(C2=CC(c3ccc(Oc4ccnc5cc(Cl)ccc45)c(OC)c3)c3c(nc(OC)[nH]c3=O)N2)cc1 (stereo not drawn)
786-0 renal
  GI50: 18.4 µM
  TGI: > 100 µM
A498 renal
  GI50: 48 µM
  TGI: > 100 µM
A549 NSCLC
  GI50: 5.66 µM
  TGI: > 100 µM
ACHN renal
  GI50: 5.24 µM
  TGI: > 100 µM
BT-549 breast
  GI50: 3.99 µM
  TGI: > 100 µM
CAKI-1 renal
  GI50: 15.5 µM
  TGI: > 100 µM
CCRF-CEM leukemia
  GI50: 3.25 µM
  TGI: > 100 µM
COLO 205 colon
  GI50: 79.9 µM
  TGI: > 100 µM
DU-145 prostate
  GI50: 10.3 µM
  TGI: > 100 µM
HCC-2998 colon
  GI50: > 100 µM
  TGI: > 100 µM
HCT-116 colon
  GI50: 3.62 µM
  TGI: > 100 µM
HCT-15 colon
  GI50: 3.85 µM
  TGI: > 100 µM
HL-60(TB) leukemia
  GI50: 3.51 µM
  TGI: 45.5 µM
HOP-62 NSCLC
  GI50: 84.9 µM
  TGI: > 100 µM
HS 578T breast
  GI50: 7.04 µM
  TGI: > 100 µM
HT29 colon
  GI50: 4.24 µM
  TGI: > 100 µM
IGROV1 ovarian
  GI50: 26 µM
  TGI: > 100 µM
K-562 leukemia
  GI50: 3.73 µM
  TGI: > 100 µM
KM12 colon
  GI50: 5.91 µM
  TGI: > 100 µM
LOX IMVI melanoma
  GI50: 4.04 µM
  TGI: 67.2 µM
M14 melanoma
  GI50: 88.4 µM
  TGI: > 100 µM
MALME-3M melanoma
  GI50: > 100 µM
  TGI: > 100 µM
MCF7 breast
  GI50: 3.56 µM
  TGI: > 100 µM
MDA-MB-231 breast
  GI50: 8.62 µM
  TGI: > 100 µM
MDA-MB-435
  GI50: 5.06 µM
  TGI: > 100 µM
NCI-H226 lung
  GI50: 16.4 µM
  TGI: > 100 µM
NCI-H23 lung
  GI50: 9.03 µM
  TGI: > 100 µM
NCI-H460 lung
  GI50: 6.51 µM
  TGI: > 100 µM
NCI-H522 lung
  GI50: 3.18 µM
  TGI: 47.2 µM
NCI/ADR-RES ovarian
  GI50: 9.88 µM
  TGI: > 100 µM
OVCAR-3 ovarian
  GI50: 6.46 µM
  TGI: > 100 µM
OVCAR-4 ovarian
  GI50: 6.69 µM
  TGI: > 100 µM
OVCAR-5 ovarian
  GI50: 24.6 µM
  TGI: > 100 µM
OVCAR-8 ovarian
  GI50: 4.85 µM
  TGI: > 100 µM
PC-3 prostate
  GI50: 6.29 µM
  TGI: > 100 µM
RPMI-8226 leukemia
  GI50: 2.73 µM
  TGI: 7.27 µM
RXF 393 renal
  GI50: 21.8 µM
  TGI: > 100 µM
SF-268 CNS
  GI50: 5.09 µM
  TGI: > 100 µM
SF-295 CNS
  GI50: 6.42 µM
  TGI: > 100 µM
SF-539 CNS
  GI50: 20.7 µM
  TGI: > 100 µM
SK-MEL-2 melanoma
  GI50: 31.6 µM
  TGI: > 100 µM
SK-MEL-28 melanoma
  GI50: 45.3 µM
  TGI: > 100 µM
SK-MEL-5 melanoma
  GI50: 7.28 µM
  TGI: 34.1 µM
SK-OV-3 ovarian
  GI50: > 100 µM
  TGI: > 100 µM
SN12C renal
  GI50: 7.03 µM
  TGI: > 100 µM
SNB-19 CNS
  GI50: 61.4 µM
  TGI: > 100 µM
SNB-75 CNS
  GI50: 9.44 µM
  TGI: > 100 µM
SR leukemia
  GI50: 2.91 µM
  TGI: 64.6 µM
SW-620 colon
  GI50: 4.34 µM
  TGI: > 100 µM
T-47D breast
  GI50: 6.83 µM
  TGI: > 100 µM
U251 CNS
  GI50: 6.94 µM
  TGI: > 100 µM
UACC-257 melanoma
  GI50: 26.4 µM
  TGI: > 100 µM
UACC-62 melanoma
  GI50: 4.39 µM
  TGI: 35.7 µM
UO-31 renal
  GI50: 5.97 µM
  TGI: > 100 µM
